Results from the NIST ThermoML archive (doi:10.1016/j.fluid.2012.09.037).
Numbers after ± are expanded uncertainties.

Assay: xn = mol fraction of the nth substance listed
Details: 373.2 K, Liquid; for mass density: Vibrating tube method; for viscosity: Moving piston method

CCCCCCCCCC [decane] + CCCCCCCCCCCCCC
x1 = 1
Details	mass density [kg/m3]
100 kPa	667.1 ± 0.3
1000 kPa	668.4 ± 0.4
2000 kPa	669.6 ± 0.4
3000 kPa	670.9 ± 0.4
4000 kPa	672.1 ± 0.4
5000 kPa	673.4 ± 0.4
6000 kPa	674.5 ± 0.4
7000 kPa	675.7 ± 0.4
8000 kPa	676.9 ± 0.4
9000 kPa	678.1 ± 0.4
10000 kPa	679.2 ± 0.4

CCCCCCCCCC [decane] + O=C=O
Details	mass density [kg/m3]	viscosity [mPa·s]
1120 kPa, x2 = 0.075	669 ± 2	0.35 ± 0.04
1950 kPa, x2 = 0.124	671 ± 2	0.33 ± 0.03
3040 kPa, x2 = 0.192	672 ± 2	0.29 ± 0.03
4010 kPa, x2 = 0.246	674 ± 2	0.27 ± 0.03
5110 kPa, x2 = 0.313	676 ± 2	0.25 ± 0.03
6190 kPa, x2 = 0.367	677 ± 2	0.22 ± 0.02

CCCCCCCCCCCCCC [tetradecane] + CCCCCCCCCC
mass density [kg/m3]
Details	x2 = 0	x2 = 0.25	x2 = 0.5	x2 = 0.75
100 kPa	705.4 ± 0.3	697.8 ± 0.3	689.1 ± 0.4	679.1 ± 0.4
1000 kPa	706.5 ± 0.4	698.8 ± 0.4	690.3 ± 0.4	680.3 ± 0.4
2000 kPa	707.6 ± 0.4	699.9 ± 0.4	691.5 ± 0.4	681.6 ± 0.4
3000 kPa	708.6 ± 0.4	701 ± 0.4	692.6 ± 0.4	682.7 ± 0.4
4000 kPa	709.6 ± 0.4	702 ± 0.4	693.7 ± 0.4	683.9 ± 0.4
5000 kPa	710.7 ± 0.4	703.1 ± 0.4	694.8 ± 0.4	685.1 ± 0.4
6000 kPa	711.6 ± 0.4	704.1 ± 0.4	695.9 ± 0.4	686.2 ± 0.4
7000 kPa	712.6 ± 0.4	705.2 ± 0.4	697 ± 0.4	687.3 ± 0.4
8000 kPa	713.6 ± 0.4	706.2 ± 0.4	698 ± 0.4	688.4 ± 0.4
9000 kPa	714.6 ± 0.4	707.2 ± 0.4	699 ± 0.4	689.5 ± 0.4
10000 kPa	715.5 ± 0.4	708.2 ± 0.4	700.1 ± 0.4	690.6 ± 0.4

CCCCCCCCCCCCCC [tetradecane] + O=C=O
Details	mass density [kg/m3]	viscosity [mPa·s]
960 kPa, x2 = 0.07	707 ± 2	0.6 ± 0.06
2000 kPa, x2 = 0.135	709 ± 2	0.55 ± 0.06
2970 kPa, x2 = 0.198	710 ± 2	0.51 ± 0.05
4000 kPa, x2 = 0.261	711 ± 2	0.47 ± 0.05
4920 kPa, x2 = 0.307	713 ± 2	0.44 ± 0.04
5970 kPa, x2 = 0.358	714 ± 2	0.41 ± 0.04
